Data reported in publication PMC5442318, “Hundreds of dual-stage antimalarial molecules discovered by a functional gametocyte screen” (Nature Communications, 2017).
Like-named read-outs stand apart in the source and are kept apart here.

How the values were obtained:
[1] = tested on: P. falciparum stages IV–V gametocytes; test: Gametocytocidal ATP-depletion assay (gametocyte ATP bioluminescence); type: cell-based, Plasmodium falciparum
In short: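 Read-out is luciferase luminescence of parasite ATP (BacTiter-Glo), standing in for viability. Double-purified mature stage IV–V gametocytes, 12,500 per well, were exposed 48 h at 37 °C in low-O2 gas; screening concentration 2 μM.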

[2] = tested on: P. falciparum stage V female gametocytes; test: P. falciparum female gametocyte activation assay (Pf FGAA), 24 h or 48 h preincubation, Pfs25 expression readout; type: cell-based, Plasmodium falciparum NF54; details: mean, read-out: Gametocytes mean Pf FGAA IC50
In short: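 Female activation, triggered by xanthurenic acid and cooling, was scored by imaging Cy3-labelled anti-Pfs25 female gametes after 24 h at 26 °C. Beforehand, purified NF54 stage V gametocytes had been incubated with compound for either 24 h or 48 h (37 °C, 3% O2). Values are pIC50 from full-curve regression.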

HepG2 cells = test: HepG2 cytotoxicity assay; type: cell-based; details: mean
In short: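 Cell viability is measured by CellTiter-Glo luminescence. Signal is developed at room temperature and read 10 min after adding the reagent, with plates and reagent first equilibrated for 30 min.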

[3] = tested on: P. falciparum asexual blood stages; details: read-out: Pf Asexual blood stages XC50, cited from earlier work
[4] = P. falciparum female gametocytes
[5] = TCAMS asexual blood stage data, ref 1 (Gamo, F. J. et al., Nature 465, 305-310, 2010)
[6] = TCAMS data, ref 1 (Gamo et al., 2010)

| Structure (SMILES) | Gametocytes mean ATP inhibition at 2µM [1] [%] | IC50 [2, 4] [nM] | HepG2 cells mean TOX50 (HepG2 cells; HepG2 cells) [µM] | IC50 [3, 5] [nM] | Gametocytes mean ATP inhibition at 2µM (%) [1] [%] | IC50 [2] [nM] | HepG2 cells mean TOX50 (HepG2 cells) [µM] | IC50 [3, 6] [nM] |
| --- | --- | --- | --- | --- | --- | --- | --- | --- |
| OC1CCN(c2cc(-c3ccccn3)nc(-c3ccccn3)n2)CC1 [TCMDC-123786] | 104.88 | 1540 | 14.14 | 1050 | – | – | – | – |
| CCN(CC)CCN(Cc1ccc(-c2ccc(C(F)(F)F)cc2)cc1)C(=O)Cn1cc(Cc2cnn(C)c2)c(=O)nc1/C=C/c1ccc(F)cc1.O=C(O)C(O)C(O)C(=O)O [TCMDC-140741] | – | – | – | – | 46.80 | 1210 | 13.81 | 1060 |
| CCOc1cc(CNCCCCCCNCc2cc(OCC)c(OCC)c3ccccc23)c2ccccc2c1OCC.CS(=O)(=O)O [TCMDC-137939] | – | – | – | – | 5.51 | 1780 | 2.00 | 280 |
| COc1ccc2ccccc2c1CNCCCCCCNCc1c(OC)ccc2ccccc12.Cl [TCMDC-137915] | – | – | – | – | 20.95 | 700 | 4.22 | 710 |
| CCCN(CC1CC1)c1ncc(-c2cccc(CNCCC3CCCN3C)c2)cn1 (stereo not drawn) [TCMDC-133142] | 6.70 | 2180 | 3.09 | 750 | – | – | – | – |
| CCc1c(CCNCCCCCCNC(C)(C)Cc2ccc3c(c2CC)OCO3)ccc(OC)c1OC.Cl [TCMDC-132055] | 19.03 | 1220 | 4.27 | 930 | – | – | – | – |
| FC(F)(F)c1cccc(Nc2nc3ccccc3nc2Nc2cccc(C(F)(F)F)c2)c1 [TCMDC-124162] | 20.50 | 2400 | 17.68 | 140 | – | – | – | – |
| CCn1c(Sc2ccc([N+](=O)[O-])c(C#N)c2)nnc1-c1cccc(Cl)c1 [TCMDC-135234] | 46.72 | 1340 | 18.80 | 870 | – | – | – | – |
| CN(CCCNCc1ccc2ccccc2c1)CCCNCc1ccc2ccccc2c1.Cl [TCMDC-137908] | – | – | – | – | 72.34 | 90 | 5.01 | 390 |
| CC(C)(C)c1ccc(CN2CCC(CNC(=O)c3cc(-c4ccccc4C(F)(F)F)cs3)C2)cc1.O=C(O)C(F)(F)F (stereo not drawn) [TCMDC-134441] | -17.21 | 690 | 9.77 | 1240 | – | – | – | – |
| CCCCCCOc1ccc2ccccc2c1CNCCCCCCNCc1c(OCCCCCC)ccc2ccccc12.CS(=O)(=O)O [TCMDC-137963] | – | – | – | – | 77.54 | 1500 | 2.40 | 1060 |
| COc1ccc(-c2csc3ncnc(Cl)c23)cc1 [TCMDC-123805] | -0.54 | 1460 | 0.55 | 780 | – | – | – | – |
| Cc1sc2nc(CN3CCCC3)nc(-n3c(NCCO)nc4ccccc43)c2c1C [TCMDC-124811] | 42.91 | 7050 | 25.73 | 1240 | – | – | – | – |
| Cc1ccccc1OCC(O)CNC1CCC(NCC(O)COc2ccccc2C)CC1 (stereo not drawn) [TCMDC-125142] | 39.31 | 1110 | 4.07 | 1190 | – | – | – | – |
| CN(C)CCN(C)Cc1ccc(-c2ccc3c(Nc4ccc(Oc5ccccn5)cc4)ccnc3c2)o1 [TCMDC-138426] | – | – | – | – | 16.13 | 2050 | 5.37 | 420 |
| CN1CCC(N2CCN(Cc3cccc(-c4ccc(-c5nc6cc(C(F)(F)F)ccc6[nH]5)cc4)c3)CC2)CC1.O=C(O)C(F)(F)F [TCMDC-133842] | 4.02 | 1090 | 2.44 | 140 | – | – | – | – |
| CCCCOc1c(CNCCCCCCNCc2ccc3ccccc3c2OCCCC)ccc2ccccc12.CS(=O)(=O)O [TCMDC-137975] | – | – | – | – | 37.85 | 1490 | 2.21 | 870 |
| Cc1ccnc(NC(c2ccc(Cl)c([N+](=O)[O-])c2)c2ccc3cccnc3c2O)c1 (stereo not drawn) [TCMDC-123691] | 95.66 | 1480 | 23.45 | 930 | – | – | – | – |
| C[C@H](Cc1ccc(CCc2ccc(C[C@@H](C)NC[C@H](O)c3cccc(Cl)c3)cc2)cc1)NC[C@H](O)c1cccc(Cl)c1.Cl [TCMDC-131551] | 51.33 | 2050 | 4.27 | 940 | – | – | – | – |
| CCn1c(-c2nonc2N)nc2c(-c3cccc(NC(=O)Nc4cccc(Cl)c4)c3)ncc(OCCCN)c21.O=C(O)C(F)(F)F [TCMDC-136193] | – | – | – | – | -8.58 | 1180 | 80.36 | 940 |
| CC(Cc1ccc(CNC(=O)c2ccc(CC(C)NCCc3cccc(Cl)c3)cc2)cc1)NCCc1cccc(Cl)c1 (stereo not drawn) [TCMDC-139659] | – | – | – | – | -0.70 | 860 | 2.26 | 700 |
| Cl.c1ccc2c(Nc3ccc(Cc4ccc(Nc5c6ccccc6nc6ccccc56)cc4)cc3)c3ccccc3nc2c1 [TCMDC-137354] | – | – | – | – | -29.34 | 1040 | 3.85 | 160 |
| CNCCNc1nccc(N2CCc3ncnc(Nc4ccc(OCc5cccc(F)c5)c(Cl)c4)c3C2)n1 [TCMDC-135478] | -9.54 | 1670 | 5.62 | 200 | – | – | – | – |
| O=C(O)C(F)(F)F.O=S(=O)(c1ccccc1)n1ccc2cc(Nc3ncnc4cc(C#C[C@H]5CCCN5)sc34)ccc21 [TCMDC-138913] | – | – | – | – | 75.13 | 1170 | 5.50 | 1070 |
| Cl.Clc1ccc(OCCC2CCN(CCCCCCCN3CCC(CCOc4ccc(Cl)c(Cl)c4)CC3)CC2)cc1Cl [TCMDC-138967] | – | – | – | – | 95.79 | 520 | 1.64 | 620 |
| CCN(CC)CCCn1c(N)c(-c2nc3ccccc3[nH]2)c2nc(C#N)c(C#N)nc21 [TCMDC-123680] | 86.44 | 740 | 4.27 | 270 | – | – | – | – |
| Cc1cc(-c2ccc(CNC3Cc4ccccc4C3)cc2)ccc1S(=O)(=O)NCCN1CCCC1.O=C(O)C(F)(F)F [TCMDC-132243] | 16.13 | 1830 | 5.31 | 700 | – | – | – | – |
| COc1ccc(CNC2Cc3ccccc3C2)cc1-c1ccc(OC)c(S(=O)(=O)NCCN2CCCC2)c1.O=C(O)C(F)(F)F [TCMDC-132251] | 24.03 | 2700 | 7.17 | 770 | – | – | – | – |
| Fc1ccc2nc(Nc3nc(-c4ccccn4)cs3)sc2c1 [TCMDC-125540] | 71.05 | 54.3 | 58.31 | 560 | – | – | – | – |
| CCn1c(-c2nonc2N)nc2c(-c3cc4ccccc4s3)ncc(C(=O)N3CCC(N)C3)c21.O=C(O)C(F)(F)F (stereo not drawn) [TCMDC-135281] | 66.75 | 450 | 1.00 | 870 | – | – | – | – |
